Counter-ions that a name gives are not always drawn.
Target: T1, human orexin-2 (hOX2) receptors (Homo sapiens, UniProt O43614)
T1 construct: expressed in transfected cells
T1 sequence (O43614 1-444): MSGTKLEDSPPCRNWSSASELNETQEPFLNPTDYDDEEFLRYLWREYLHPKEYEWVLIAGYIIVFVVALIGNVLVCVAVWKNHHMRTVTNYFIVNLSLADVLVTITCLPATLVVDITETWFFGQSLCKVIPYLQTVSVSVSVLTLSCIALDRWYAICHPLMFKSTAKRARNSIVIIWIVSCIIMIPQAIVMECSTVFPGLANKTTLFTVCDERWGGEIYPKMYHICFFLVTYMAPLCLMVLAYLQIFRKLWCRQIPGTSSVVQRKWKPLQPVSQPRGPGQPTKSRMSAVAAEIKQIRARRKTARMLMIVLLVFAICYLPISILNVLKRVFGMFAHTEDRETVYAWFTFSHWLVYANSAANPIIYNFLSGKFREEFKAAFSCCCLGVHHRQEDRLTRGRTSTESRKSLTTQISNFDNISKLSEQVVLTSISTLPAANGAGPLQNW
Test: Intracellular Ca2+ mobilization assay (FLIPR), antagonism of orexin-A
Format: cell-based
Settings: CHO(dHFr−) cells stably expressing hOX2; orexin-A at EC80 as agonist; Kb=IC50/(1+[A]/EC50); read-out: Kb (μM) OX2R (human)
Experimental: R^7 and R^8 in scheme 5 are hydrogen, and the other substituents are as described above The compounds were investigated in accordance with the test given hereinafter. Intracellular Ca^2+ Mobilization Assay
The Chinese Hamster Ovary (dHFr−) mutant cell line stably expressing human orexin-1 (hOX1) or human orexin-2 (hOX2) receptors were maintained in Dulbecco's Modified Eagle Medium (1×) with GlutaMax™ 1, 4500 mg/L D-Glucose and Sodium Pyruvate (Catalog No. 31966-021, Invitrogen, Carlsbad, Calif.), 5% dialyzed fetal calf serum (Catalog No. 26400-044), 100 μg/ml penicillin and 100 μg/ml streptomycin. The cells were seeded at 5×10^4 cells/well in the poly-D-lysine treated, 96-well, black/clear-bottomed plates (Catalog No. BD356640, BD Biosciences, Palo Alto, Calif.). 24 h later, the cells were loaded for 1 h at 37° C. with 4 μM Flou-4 acetoxymethyl ester (Catalog No. F-14202, Molecular Probes, Eugene, Oreg.) in FLIPR buffer (1×HBSS, 20 mM HEPES, 2.5 mM Probenecid). Hanks' Balanced Salt Solution (HBSS) (10×) (catalog No. 14065-049) and HEPES (1M) (catalog No. 15630-056) were purchased from Invitrogen, Carlsbad, Calif. Probenecid (250 mM) (catalog No. P8761) was from Sigma, Buchs, Switzerland. The cells were washed five times with FLIPR buffer to remove excess dye and intracellular calcium mobilization, [Ca^2+]i were measured using a Fluorometric Imaging Plate Reader (FLIPR-96, Molecular Devices, Menlo Park, Calif.) as described previously (Malherbe et al., Mol. Pharmacol., 64, 823-832, 2003). Orexin A (catalog No. 1455, Toris Cookson Ltd, Bristol, UK) was used as agonist. Orexin A ([…] stock solution in DMSO) was diluted in FLIPR buffer+0.1% BSA. The EC50 and EC80 values of orexin-A were measured daily from standard agonist concentration-response curves in CHO(dHFr−)-OX1R and —OX2R cell lines. All compounds were dissolved in 100% DMSO. Inhibition curves were determined by addition of 11 concentrations (0.0001-10 μM) of inhibitory compounds and using EC80 value of orexin-A as agonist (a concentration which gave 80% of max agonist response, determined daily). The antagonists were applied 25 min (incubation at 37° C.) before the application of the agonist. Responses were measured as peak increase in fluorescence minus basal, normalized to the maximal stimulatory effect induced by EC80 value of orexin-A or orexin-B. Inhibition curves were fitted according to the Hill equation: y=100/(1+(x/IC50)^nH), where nH=slope factor using Excel-fit 4 software (Microsoft). Kb values were calculated according to the following equation Kb=IC50/(1+[A]/EC50) where A is the concentration of agonist added which is very close to agonist EC80 value, and IC50 and EC50 values were derived from the antagonist inhibition and orexin-A or B agonist curves, respectively.

Compared with `CNC(=O)[C@H](N[C@@H](CCc1ccc(C(F)(F)F)cc1)c1cccc(OC)c1)c1ccccc1` [Example 221, (R)-2-[(S)-1-(3-Methoxy-phenyl)-3-(4-trifluoromethyl-phenyl)-propylamino]-N-methyl-2-phenyl-acetamide hydrochloride], `CNC(=O)[C@H](N[C@@H](CCc1ccc(C(F)(F)F)cc1)c1cccc(OC(F)F)c1)c1ccccc1` [Example 387, (R)-2-[(S)-1-(3-Difluoromethoxy-phenyl)-3-(4-trifluoromethyl-phenyl)-propylamino]-N-methyl-2-phenyl-acetamide] is 3.1-fold higher in Kb: 0.0026 µM for the first, 0.008 µM for the second.

Compared with `CNC(=O)C(NC(CCc1ccc(C(F)(F)F)cc1)c1sc(C)nc1C)c1ccccc1` (centres unmarked) [Example 93, 2-[1-(2,4-Dimethyl-thiazol-5-yl)-3-(4-trifluoromethyl-phenyl)-propylamino]-N-methyl-2-phenyl-acetamide], `CNC(=O)[C@H](N[C@@H](CCc1ccc(C(F)(F)F)cc1)c1cccnc1OC)c1ccccc1` (racemic) [Example 179, (S,R)-2-[(R,S)-1-(2-Methoxy-pyridin-3-yl)-3-(4-trifluoromethyl-phenyl)-propylamino]-N-methyl-2-phenyl-acetamide] is 2.1-fold lower in Kb: 0.017 µM for the first, 0.0081 µM for the second.

`CNC(=O)[C@H](N[C@@H](CCc1ccc(C(F)(F)F)nc1)c1cccc(OC(F)F)c1)c1ccccc1` (racemic) [Example 225, (S,R)-2-[(R,S)-1-(3-Difluoromethoxy-phenyl)-3-(6-trifluoromethyl-pyridin-3-yl)-propylamino]-N-methyl-2-phenyl-acetamide] and `CNC(=O)C(NC(CCc1ccc(C(F)(F)F)nc1)c1ccc(OC(F)F)c(OC(F)F)c1)c1ccccc1` (mixture of isomers) [Example 263, 2-[1-(3,4-Bis-difluoromethoxy-phenyl)-3-(6-trifluoromethyl-pyridin-3-yl)-propylamino]-N-methyl-2-phenyl-acetamide] are within 1.5-fold of each other in Kb: 0.0144 µM for the first, 0.0102 µM for the second.

`CNC(=O)[C@H](N[C@@H](CCc1ccc(C(F)(F)F)nc1)c1ccc(F)c(C)c1)c1ccc(OC)cc1` (racemic) [Example 350, (R,S)-2-[(S,R)-1-(4-fluoro-3-methyl-phenyl)-3-(6-trifluoromethyl-pyridin-3-yl)-propylamino]-2-(4-methoxy-phenyl)-N-methyl-acetamide] and `CNC(=O)[C@H](N[C@H](CCc1ccc(C(F)(F)F)nc1)c1ccc(Cl)c(OC)c1)c1ccc(F)cc1` (racemic) [Example 223, (S,R)-2-[(S,R)-1-(4-Chloro-3-methoxy-phenyl)-3-(6-trifluoromethyl-pyridin-3-yl)-propylamino]-2-(4-fluoro-phenyl)-N-methyl-acetamide] are within 1.5-fold of each other in Kb: 0.0164 µM for the first, 0.0171 µM for the second.

Compared with `CNC(=O)[C@@H](N[C@@H](CCc1ccc(C(F)(F)F)cc1)c1ccc(OC)c(OC)c1)c1ccc(Cl)cc1` (racemic) [Example 33, (S,R)-2-(4-Chloro-phenyl)-2-[(S,R)-1-(3,4-dimethoxy-phenyl)-3-(4-trifluoromethyl-phenyl)-propylamino]-N-methyl-acetamide], `CNC(=O)[C@@H](N[C@@H](CCc1ccc(C(F)(F)F)cc1)c1ccc(OC)c(OC)c1)c1ccccc1` (racemic) [Example 141, (S,R)-2-[(S,R)-1-(3,4-Dimethoxy-phenyl)-3-(4-trifluoromethyl-phenyl)-propylamino]-N-methyl-2-phenyl-acetamide] is 1.9-fold higher in Kb: 0.009 µM for the first, 0.0168 µM for the second.

Going from `CNC(=O)[C@H](N[C@@H](CCc1ccc(C(F)(F)F)nc1)c1ccc(C)c(OC)c1)c1ccccc1` (racemic) [Example 253, (S,R)-2-[(R,S)-1-(3-Methoxy-4-methyl-phenyl)-3-(6-trifluoromethyl-pyridin-3-yl)-propylamino]-N-methyl-2-phenyl-acetamide] to `CNC(=O)[C@H](N[C@H](CCc1ccc(C(F)(F)F)nc1)c1ccc(Cl)c(OC)c1)c1ccccc1` (racemic) [Example 215, (S,R)-2-[(S,R)-1-(4-Chloro-3-methoxy-phenyl)-3-(6-trifluoromethyl-pyridin-3-yl)-propylamino]-N-methyl-2-phenyl-acetamide], the Kb rises from 0.0034 µM to 0.008 µM (2.4-fold).

Going from `Cc1cc([C@H](CCc2ccc(C(F)(F)F)nc2)N[C@@H](C(N)=O)c2ccccc2)ccc1F` [Example 353, (R)-2-[(S)-1-(4-Fluoro-3-methyl-phenyl)-3-(6-trifluoromethyl-pyridin-3-yl)-propylamino]-2-phenyl-acetamide] to `CNC(=O)[C@H](N[C@@H](CCc1ccc(Cl)nc1)c1ccc(F)c(C)c1)c1ccccc1` (racemic) [Example 266, (S,R)-2-[(R,S)-3-(6-Chloro-pyridin-3-yl)-1-(4-fluoro-3-methyl-phenyl)-propylamino]-N-methyl-2-phenyl-acetamide], the Kb rises from 0.0057 µM to 0.0175 µM (3.1-fold).

Compared with `CNC(=O)[C@H](N[C@@H](CCc1ccc(C(F)(F)F)nc1)c1ccc(Cl)c(OC)c1)c1ccccc1` (racemic) [Example 216, (S,R)-2-[(R,S)-1-(4-Chloro-3-methoxy-phenyl)-3-(6-trifluoromethyl-pyridin-3-yl)-propylamino]-N-methyl-2-phenyl-acetamide], `CNC(=O)[C@H](N[C@@H](CCc1ccc(C(F)(F)F)nc1)c1ccc(Cl)c(OC)c1)c1ccc(Cl)cc1` (racemic) [Example 220, (S,R)-2-[(R,S)-1-(4-Chloro-3-methoxy-phenyl)-3-(6-trifluoromethyl-pyridin-3-yl)-propylamino]-2-(4-chloro-phenyl)-N-methyl-acetamide] is 4.9-fold lower in Kb: 0.0073 µM for the first, 0.0015 µM for the second.

Compared with `CNC(=O)[C@H](N[C@H](CCc1cccc(C(F)(F)F)c1)c1ccc(OC)c(OC)c1)c1ccccc1` (racemic) [Example 320, (R,S)-2-[(R,S)-1-(3,4-Dimethoxy-phenyl)-3-(3-trifluoromethyl-phenyl)-propylamino]-N-methyl-2-phenyl-acetamide], `CNC(=O)[C@H](N[C@@H](CCc1ccc(F)cc1)c1ccc(OC)c(OC)c1)c1ccccc1` (single isomer, unassigned) [Example 144] is 4.6-fold higher in Kb: 0.0021 µM for the first, 0.0097 µM for the second.

Compared with `CNC(=O)[C@H](N[C@@H](CCc1ccc(C(F)(F)F)nc1)c1cc(C)ccc1F)c1ccc(F)cc1` [Example 107, (R)-2-[(S)-1-(2-Fluoro-5-methyl-phenyl)-3-(6-trifluoromethyl-pyridin-3-yl)-propylamino]-2-(4-fluoro-phenyl)-N-methyl-acetamide], `CNC(=O)[C@H](N[C@@H](CCc1ccc(C(F)(F)F)cc1)c1cccc(OC(F)F)c1)c1ccc(C)cc1` [Example 389, (R)-2-[(S)-1-(3-Difluoromethoxy-phenyl)-3-(4-trifluoromethyl-phenyl)-propylamino]-N-methyl-2-p-tolyl-acetamide] is 2.6-fold lower in Kb: 0.0124 µM for the first, 0.0048 µM for the second.

Compared with `CNC(=O)[C@H](N[C@@H](CCc1ccc(Cl)cc1)c1ccc(OC)c(OC)c1)c1ccccc1` (single isomer, unassigned) [Example 140], `CNC(=O)[C@H](N[C@@H](CCc1ccc(C)cc1)c1ccc(OC)c(OC)c1)c1ccccc1` (racemic) [Example 209, (S,R)-2-[(R,S)-1-(3,4-Dimethoxy-phenyl)-3-p-tolyl-propylamino]-N-methyl-2-phenyl-acetamide] is 1.7-fold higher in Kb: 0.0014 µM for the first, 0.0024 µM for the second.

`CNC(=O)[C@H](N[C@@H](CCc1ccc(Cl)cc1)c1ccc(OC)c(OC)c1Cl)c1ccccc1` [Example 98, (R)-2-[(S)-1-(2-Chloro-3,4-dimethoxy-phenyl)-3-(4-chloro-phenyl)-propylamino]-N-methyl-2-phenyl-acetamide] was tested, and the Kb was 0.0014 µM.
